The text below walks through data of ChEMBL document CHEMBL3045657, “Synthesis and biological evaluation of naphthalene, furan and pyrrole based chalcones as cytotoxic and antimicrobial agents” (2012).

Converted amounts (≈) assume the structure as drawn. The source made the active and inactive calls.

Holding throughout (assay type): functional
One assay deals with Bacillus subtilis. Put plainly: Antibacterial activity against Bacillus subtilis MTCC 2451 after 24 hr by serial tube dilution method. The settings on record: MTCC 2451, 24 h.
For the next assay, the system named is Candida albicans. Put plainly: Antifungal activity against Candida albicans MTCC 3018 after 48 hr by serial tube dilution method. The settings on record: MTCC 3018, 48 h.
The test system of the next assay is OVCAR. Put plainly: Cytotoxicity against Homo sapiens (human) OVCAR cells assessed as cell growth inhibition at 1 x 10^-5 M after 48 hr by SRB assay. The settings on record: for inhibition of growth at 10 µM: read-out: GI. For orientation: In SRB staining, fixed cells bind dye roughly in proportion to their protein.
The next assay has as its system Staphylococcus aureus. Put plainly: Antibacterial activity against Staphylococcus aureus MTCC 96 after 24 hr by serial tube dilution method. The settings on record: MTCC 96, 24 h.
For the next assay, the system named is IMR-32. The assay can be described thus: Cytotoxicity against Homo sapiens (human) IMR32 cells assessed as cell growth inhibition at 1 x 10^-5 M after 48 hr by SRB assay. The settings on record: for inhibition of growth at 10 µM: IMR-32, 48 h, read-out: GI.
The next assay concerns Pseudomonas aeruginosa. Put plainly: Antibacterial activity against Pseudomonas aeruginosa MTCC 2642 after 24 hr by serial tube dilution method. The settings on record: MTCC 2642, 24 h.
In the next assay the test system is PC-3. Put plainly: Cytotoxicity against Homo sapiens (human) PC3 cells assessed as cell growth inhibition at 1 x 10^-5 M after 48 hr by SRB assay. The settings on record: for inhibition of growth at 10 µM: PC-3, 48 h, read-out: GI.
In a further assay the test system is Salmonella typhi. The assay can be described thus: Antibacterial activity against Salmonella enterica subsp. enterica serovar Typhi MTCC 1251 after 24 hr by serial tube dilution method. The settings on record: MTCC 1251, 24 h.
The next assay relates to Escherichia coli. Put plainly: Antibacterial activity against Escherichia coli MTCC 82 after 24 hr by serial tube dilution method. The settings on record: MTCC 82, 24 h.
For the next assay, the system named is Aspergillus niger. Put plainly: Antifungal activity against Aspergillus niger MTCC 1344 after 48 hr by serial tube dilution method. The settings on record: MTCC 1344, 48 h.
A further assay concerns HEp-2. The assay can be described thus: Cytotoxicity against Homo sapiens (human) Hep2 cells assessed as cell growth inhibition at 1 x 10^-5 M after 48 hr by SRB assay. The settings on record: HEp-2, 48 h, read-out: GI.

Take `COc1ccc(/C=C/C(=O)c2ccc3ccccc3c2)cc1OC`: the MIC in the assay on Bacillus subtilis came out at 62.5 µg/mL (≈ 196 µM); with Candida albicans it was 500 µg/mL (≈ 1570 µM); in the assay with Staphylococcus aureus, 62.5 µg/mL (≈ 196 µM); in the assay with Pseudomonas aeruginosa it was 125 µg/mL (≈ 393 µM); with Salmonella typhi, 62.5 µg/mL (≈ 196 µM); against Escherichia coli, 125 µg/mL (≈ 393 µM). In the assay on Aspergillus niger, this compound had an MIC of 250 µg/mL (≈ 785 µM). Moreover, the inhibition of growth at 10 µM in the assay on OVCAR was 49%; in the assay with IMR-32, 51%; with PC-3, 53%; with HEp-2, 53%.
For `COc1ccc(/C=C/C(=O)c2ccco2)cc1OC`, the MIC in the assay on Bacillus subtilis is 31.2 µg/mL (≈ 121 µM); in the assay with Candida albicans, 250 µg/mL (≈ 968 µM); in the assay with Staphylococcus aureus, 31.2 µg/mL (≈ 121 µM); against Pseudomonas aeruginosa, 31.2 µg/mL (≈ 121 µM); against Salmonella typhi it was 15.6 µg/mL (≈ 60.4 µM); with Escherichia coli, 15.6 µg/mL (≈ 60.4 µM). For the same compound, inhibition of growth in the assay on Aspergillus niger (MIC) required 125 µg/mL (≈ 484 µM). The “growth inhibition (GI)” value in the assay with OVCAR is “inactive”. For the same compound, the inhibition of growth at 10 µM with IMR-32 amounted to 33%; in the assay with PC-3, 29%; in the assay on HEp-2, 27%.
For the compound `COc1cc(/C=C/C(=O)c2ccc3ccccc3c2)cc(OC)c1OC`, the MIC worked out at 3.9 µg/mL (≈ 11.2 µM) against Bacillus subtilis; 125 µg/mL (≈ 359 µM) in the assay on Candida albicans; 1.9 µg/mL (≈ 5.45 µM) in the assay on Staphylococcus aureus; 15.6 µg/mL (≈ 44.8 µM) against Pseudomonas aeruginosa; 15.6 µg/mL (≈ 44.8 µM) with Salmonella typhi; 3.9 µg/mL (≈ 11.2 µM) with Escherichia coli. In addition, it took 125 µg/mL (≈ 359 µM) to inhibit growth with Aspergillus niger (MIC). Further, the inhibition of growth at 10 µM in the assay on OVCAR is 87%; with IMR-32, 81%; in the assay with PC-3 it was 84%; in the assay with HEp-2, 79%.
For the compound `O=C(/C=C/c1ccc(Cl)cc1Cl)c1ccc[nH]1`, the minimum inhibitory concentration (MIC) against Bacillus subtilis worked out at 15.6 µg/mL (≈ 58.6 µM); in the assay with Candida albicans it was 125 µg/mL (≈ 470 µM); against Staphylococcus aureus it was 7.8 µg/mL (≈ 29.3 µM); against Pseudomonas aeruginosa it was 31.2 µg/mL (≈ 117 µM); in the assay with Salmonella typhi it was 15.6 µg/mL (≈ 58.6 µM); against Escherichia coli, 15.6 µg/mL (≈ 58.6 µM). Further, the lowest concentration to inhibit growth with Aspergillus niger (MIC) was 62.5 µg/mL (≈ 235 µM). Also, the inhibition of growth at 10 µM in the assay on OVCAR was 13%; in the assay on HEp-2 it was 16%. Moreover, the “growth inhibition (GI)” value in the assay on IMR-32 and in the assay on PC-3 was “inactive” throughout.
On to `COc1ccc(/C=C/C(=O)c2ccco2)cc1O`, for which the MIC was 62.5 µg/mL (≈ 256 µM) in the assay with Bacillus subtilis; 250 µg/mL (≈ 1020 µM) in the assay on Candida albicans; 31.2 µg/mL (≈ 128 µM) against Staphylococcus aureus; 125 µg/mL (≈ 512 µM) with Pseudomonas aeruginosa; 62.5 µg/mL (≈ 256 µM) with Salmonella typhi; 62.5 µg/mL (≈ 256 µM) against Escherichia coli. Besides, in the assay on Aspergillus niger, the MIC came to 250 µg/mL (≈ 1020 µM). The inhibition of growth at 10 µM with OVCAR was determined as 23%; in the assay on IMR-32 it was 16%; with PC-3, 21%; in the assay on HEp-2, 19%.
In the case of `COc1ccc(OC)c(/C=C/C(=O)c2ccco2)c1`, the MIC against Bacillus subtilis was determined as 31.2 µg/mL (≈ 121 µM); with Candida albicans, 125 µg/mL (≈ 484 µM); with Staphylococcus aureus, 62.5 µg/mL (≈ 242 µM); with Pseudomonas aeruginosa, 31.2 µg/mL (≈ 121 µM); in the assay on Salmonella typhi it was 62.5 µg/mL (≈ 242 µM); in the assay on Escherichia coli, 31.2 µg/mL (≈ 121 µM). In the assay on Aspergillus niger, inhibition of growth (MIC) required 125 µg/mL (≈ 484 µM). For the same compound, in the assay with OVCAR, the “growth inhibition (GI)” value is “inactive”. The inhibition of growth at 10 µM was 31% in the assay on IMR-32, 23% in the assay with PC-3 and 29% in the assay on HEp-2.
Take `O=C(/C=C/c1c(Cl)cccc1Cl)c1ccc[nH]1`: the MIC with Bacillus subtilis is 31.2 µg/mL (≈ 117 µM); with Candida albicans, 125 µg/mL (≈ 470 µM); with Staphylococcus aureus, 15.6 µg/mL (≈ 58.6 µM); in the assay on Pseudomonas aeruginosa, 31.2 µg/mL (≈ 117 µM); against Salmonella typhi it was 31.2 µg/mL (≈ 117 µM); in the assay with Escherichia coli, 15.6 µg/mL (≈ 58.6 µM). In addition, 125 µg/mL (≈ 470 µM) was the least that counted as inhibitory in the assay with Aspergillus niger (MIC). The “growth inhibition (GI)” value with OVCAR and in the assay with PC-3 was “inactive” in each case. Moreover, the results for the inhibition of growth at 10 µM in the assay on IMR-32 and in the assay on HEp-2 were 12% and 16%, respectively.
Turning to `COc1cc(/C=C/C(=O)c2ccco2)cc(OC)c1OC`, the MIC against Bacillus subtilis is 31.2 µg/mL (≈ 108 µM); with Candida albicans, 62.5 µg/mL (≈ 217 µM); in the assay with Staphylococcus aureus, 15.6 µg/mL (≈ 54.1 µM); against Pseudomonas aeruginosa it was 15.6 µg/mL (≈ 54.1 µM); against Salmonella typhi, 31.2 µg/mL (≈ 108 µM); with Escherichia coli it was 62.5 µg/mL (≈ 217 µM). In the assay on Aspergillus niger, this compound registered an MIC of 62.5 µg/mL (≈ 217 µM). In addition, the inhibition of growth at 10 µM in the assay on OVCAR was 28%; in the assay on IMR-32, 49%; in the assay with PC-3, 42%; in the assay with HEp-2, 47%.

By MIC is commonly meant the smallest concentration in the dilution series that meets the test's criterion for growth inhibition. Read a high MIC as weaker potency.
